“And” between values parts separate entries of the source, which are not always exact repeats. Identical values can stand only once. Like-named read-outs stand apart in the source and are kept apart here.
How the values were obtained:
Caco-2 cells [1] = details: for recovery at experiment end point: 90 minutes
Method: Cells at passage 68 were used in these studies. Caco-2 cells were grown in high D-glucose DMEM medium supplemented with 1% L-glutamine, 1% nonessential amino acids, 1% sodium pyruvate, 1% penicillinstreptomycin and 10% fetal bovine serum.
Cells (passage 68) were harvested after 95% confluence and seeded at a density of 85,000 cells per polycarbonate membranes (0.4 μm pore size and a surface area of 0.33 cm^2) inserts. Cells on inserts were cultured for 10 days.
Transport studies: Test substances transport across Caco-2 monolayers was investigated in ‘apical to basolateral’ direction (n=2), at two time points (45 and 90 minutes).
Prior to the experiment, the culture medium was removed; cells were washed twice with 150 μl apical buffer and 600 μl basolateral buffer (containing 25 mM D-glucose, 20 mM HEPES biological buffer, 1.25 mM CaCl2, 0.5 mM MgCl2, adjusted to pH 7.4 with KOH) and were incubated for 30 minutes at 37° C., 45 RPM, with the same buffers.
Transport studies were performed at 37° C., with shaking at 45 RPM with either the tested compounds or standards (n=2). At each time point, aliquot of 120 μl Basolateral sample was drawn from each insert. For the radioactive marker Mannitol, 20 μl duplicate aliquots were drawn at each time point. […] At endpoint (90 minutes), the whole volume of the apical and basolateral chambers was collected.
Data Recording: Substance samples and propranolol standard samples were analyzed using HPLC (see below for analyses details). [^3H]-Mannitol samples were subjected to analysis by liquid scintillation counting in a Packard TopCount NXT. The results were obtained in CPM.
Papp Calculations: Apparent permeability coefficients (Papp) of tested compounds and standards were calculated from the following equation: Papp(t)=(CtV/t)×(1/C0A) where C0 is the initial concentration (at t=0) of the compound on the donor (apical side); Ct is the concentration at the calculated time point (t) in the receiver (basolateral) chamber; V is receiver chamber volume; A is the surface area of the monolayer; and t is the elapsed time.
Compound and standards Recovery: At the last time point of the experiment (90 minutes), basolateral and apical amounts values were measured and recovery (%) of the tested compound or standard was calculated according to the following equation: Recovery %=(C90 min×Vbasolateral)+(C90 min×Vapical)/C0×Vapical
HPLC analyses: HPLC analyses were performed using a Waters 2790 HPLC system, equipped with PDA 996 detector (Waters).

Caco-2 cells [2] = test system: Caco-2 cells
Method: LDH Assay: 100 μl of cells supernatant were removed from the basolateral chamber at the end of transport experiment. LDH release was assayed according to the manufacturer instructions using cytotoxicity detection kit (Roche, Cat. No. 1 644 793).
Specifically, an increase in the amount of dead or plasma membrane-damaged cells results in release of lactate dehydrogenase (LDH) enzyme to the surrounding buffer. The enzymatic activity of LDH is measured in a colorimetric assay. A surfactant that damages cell membranes is used as a positive control.
Short term damage—LDH Release: LDH activity in basolateral buffer from inserts of each group (n=2) was measured in a colorimetric assay as described hereinabove. The positive control glycocholate was previously assayed and is shown for comparison.

hIAPP1-37 = target: T1, hIAPP1-37 (Homo sapiens, UniProt P10997); experiment: Thioflavin T fluorescence assay of fibril formation; assay type: biochemical
T1 construct: purchased Calbiochem (CalBiochem Calif., USA); host or cells: solid-phase chemical synthesis
T1 sequence (P10997 34-70 limits assumed): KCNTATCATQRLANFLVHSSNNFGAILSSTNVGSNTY
Method: Fibrillization of hIAPP1-37 was monitored by Thioflavin T dye binding assay. hIAPP1-37 stock solution was diluted to a final concentration of 4 μM in 10 mM sodium acetate buffer (pH 6.5) with or without inhibitor, and a final HFIP concentration of 1% (vol). […] In every measurement ThT was added to a final concentration of 3 μM and measurements were carried out using Perkin Elmer (excitation 450 nm, 2.5 nm slit; emission 480 nm 10 nm slit). […] Background was subtracted from all samples.
Thioflavin T (ThT) is commonly used for detecting the level of amyloid formation. hIAPP1-37 solution was prepared as described above. Following incubation in the presence or absence of phenol red and addition of 3 μM ThT to each sample, fluorescence was measured.
Fibrillization of hIAPP1-37 was monitored by Thioflavin T (ThT) dye binding assay, as described above, using an inhibitor concentration of 40 μM or 4 μM.

βTC-tet cells = experiment: MTT cell viability assay, hIAPP cytotoxicity; assay type: cell-based, murine; details: 4 μM hIAPP1-37, 24 hrs, phenol red in medium, 50% without phenol red
Method: βTC-tet cells [Fleischer, N., Chen C., Surana, M., Leiser, M., Rossetti, L., Pralong, W. and Efrat, S. (1998) Functional analysis of a conditionally transformed pancreatic beta-cell line, Diabetes 47, 1419-1425] or PC12 cells (ATCC # CRL-1721) were plated on 24-well plates (2-10^5/well) or on 96-well plates (1-10^4/well) respectively, and allowed to adhere for 24 hours. Synthetic hIAPP1-37 stock solution was diluted to a final concentration of 4 μM in serum free growth medium [Fleischer (1998) Supra] containing DMEM with or without phenol red. Immediately following dilution, samples were centrifuged at 4° C. for 20 minutes at 20,000 g, and the supernatant was bubbled with nitrogen for 30 min to evaporate residual HFIP. Cells were washed twice with PBS and incubated with the supernatant for 24 hrs. MTT (Sigma M-2128) was then added for 3 hrs, followed by addition of lysis buffer and incubation over night. Assay was effected according to Manufacturer's instructions. Samples were read at 570 nm. Cell viability was calculated in comparison to cells incubated in the absence of hIAPP in medium with or without phenol red, respectively.
The ability of phenol red to modulate cytotoxicity effect of hIAPP amyloid assemblies on pancreatic β cells in culture was addressed. […]

hIAPP20-29 [3] = target: T2, hIAPP20-29 (Homo sapiens, UniProt P10997); experiment: Transmission electron microscopy of fibrils; assay type: biochemical; details: hIAPP20-29 with inhibitor, 24 hr incubation
T2 construct: purchased Peptron, Inc. (Taejeon, Korea); host or cells: solid-phase chemical synthesis
Method: 10 μL samples of hIAPP22-29 or hIAPP20-29 from the aggregation assay, and hIAPP1-37 from the fluorescence assay were placed on 400-mesh copper grids (SPI supplies, West Chester Pa.) covered by carbon-stabilized Formvar film. After 1 minute, excess fluid was removed, and the grids were negatively stained with 2% uranyl acetate in water for another two minutes. Samples were viewed in a JEOL 1200EX electron microscope operating at 80 kV.
Samples of hIAPP22-29 and hIAPP20-29 taken from the aggregation assay (described in Example 3) were visualized using transmission electron microscopy. As is shown in FIG. 4a, distinct and well-defined amyloid fibers were observed 3 and 72 hours after initiation of aggregation in both samples of the hIAPP22-29 peptide, with a minor increase in fiber density and width following 72 hours. […] Same results were obtained with the hIAPP20-29 peptide after 24 hr incubation (FIG. 4b) in the presence of phenol red inhibitor. No inhibition was observed using phenolphthaleine under the same conditions and fibrillar structures were evident on the TEM grid.

hIAPP20-29 [4] = target: T2, hIAPP20-29; experiment: Kinetic aggregation assay (turbidity); assay type: biochemical; details: 1 mM peptide, 40 mM inhibitor, Tris pH 7.2, 4% DMSO
Method: Stock solutions of hIAPP22-29 and hIAPP20-29 peptide were prepared by dilution of lyophilized peptides into 10 mM Tris-HCl (pH 7.2) buffer to a final concentration of 1 mM peptide and 4% DMSO. Turbidity data were collected at 405 or 560 nm at room temperature. A buffer solution containing the same amount of DMSO as the tested samples was used as blank. Turbidity was measured using disposable UVette cuvettes (Eppendorf, Germany) and a Scinco S-3100 spectrophotometer.
The core amyloidogenic fragments of hIAPP (hIAPP22-29, hIAPP20-29) aggregate in an aqueous solution. Such an aggregation behavior was served as a preliminary assay for amyloid formation.
In order to evaluate the ability of phenol red to inhibit amyloid formation, the aggregation of 1 mM hIAPP22-29 and hIAPP20-29 (SEQ ID NO: 1 and NO: 2, respectively) was examined in the absence or presence of 40 mM phenol red. To verify the specificity of phenol red molecule towards hIAPP core peptides, a very similar molecule—phenolphthaleine, which differs only by the lack of the sulfon group, was used as control (FIG. 7).

[5] = Pharmacokinetics in mice, oral administration
Method: (§1) Male mice (ICR), 5 weeks of age, weighing 27-32 grams at study initiation were used. A total of sixteen animals were tested in each set of experiments, divided to 8 groups, 2 animals in each group. Animals were acclimatized for 5-7 days. All test animals was kept under environmental controlled housing conditions throughout the entire study period, and maintained in accordance with Harlan Biotech Israel (HBI) approved standard operation procedures (SOP's).
Administration to test animals was performed orally, following food deprivation of about 3.5-5 hours, by the use of gavage needle made of stainless steel which was introduced directly to the stomach.
Dosing solutions were prepared as described hereinabove for the I.V. administration.
Blood samples were taken, as described hereinabove, at the following time points: 30, 45, 60, 120, 180, 240, 300 and 360 minutes post dosing, two animals per time point, by retro orbital sinus bleeding under CO2 anesthesia.
(§2) Analysis was performed in Analyst Ltd., using LC/MS/MS method.
(§3) The chromatographic separation was achieved on a Gemini C1 8 column (50×2.0 mm, 5 μm), using 50:50 acetonitrile:water solution containing 0.1% NH4OH as the mobile phase, at a flow rate of 0.3 ml/minute.
(§4) All samples were analyzed by the Micromass Quattro Pt triple-quadrupole mass selective detector equipped with an electrospray ionization source. […] The system includes a 2795 HT Waters HPLC and Masslynx v.4.0 software. Quanlynx v.4.0 software was used for calculation.
(§5) For calculation of phenol red concentration in samples, weighted linear regression curves (1/x^2) were calculated from response of analyte versus calibration standard concentration. The weighted linear regression correlation coefficient was grater than 0.99.
(§6) K Parameters Calculations: PK parameters were calculated using Winnonlin Pro 4.01 software (Pharsight).

[6] = Pharmacokinetics in mice, intravenous administration; details: for PF3 Concentration / Phenol red Concentration, Analyzed: mice plasma
Method: as §1
A single slow intravenous injection (over a period of approximately one minute) was administered into one of the tail veins of each animal.
Dosing solutions were prepared in a co-solvent vehicle system containing DMA:PEG400:Saline 25:40:35 respectively (e.g., each 1 ml consists of 0.25 ml DMA, 0.4ml PEG400 and 0.35 ml Saline).
Dosing solutions were freshly and identically prepared prior to dosing, as deemed necessary.
Blood samples were taken at the following time points: pre-dosing (time 0), 5, 15, 30, 60, 90, 120 and 300 minutes post dosing, two animals per time point, by retro orbital sinus bleeding under CO2 anesthesia. Individual blood samples of at least 0.4 ml whole blood were collected into pre-labeled lithium heparin coated tubes. Plasma separation was made as soon as possible after collection, by centrifugation at 2500G for 15 minutes. After centrifugation supernatant was transferred to eppendorff tube (1.5 ml) pre-labeled with the appropriate animal number, study number and time post dosing. Plasma samples were kept at about −20° C.
as §2, §3, §4, §5, §6

[7] = 4 μM hIAPP1-37, 40 μM inhibitor
[8] = I.V. PF3, 5 minutes post dosing
[9] = I.V. PF3, 15 minutes post dosing
[10] = I.V. PF3, 30 minutes post dosing
[11] = I.V. PF3, 60 minutes post dosing
[12] = I.V. PF3, 125 minutes post dosing
[13] = I.V. PF3, 300 minutes post dosing
[14] = phenol red plasma profile, mice, I.V. PF3
[15] = phenol red plasma profile, mice, I.V. PF3 .25 mg/kg

For COc1ccc(C2(c3ccc(OC)cc3)OS(=O)(=O)c3ccccc32)cc1 [PF4, dimethoxy phenol red], the “recovery at experiment end point” value (Caco-2 cells [1]; 0.2 mM concentration) was 105%±31%, the “recovery at experiment end point” value (Caco-2 cells [1]; 1 mM concentration) was 123%±48% and the “detection at the basolateral chamber” value (Caco-2 cells [1]; both tested concentrations) was “not detected”. For the same molecule, the “cytotoxicity (LDH activity in basolateral buffer)” value (Caco-2 cells [2]; CaCo-2 inserts after transport experiment) was “negligible”, the “inhibition of hIAPP1-37 fibril formation (ThT fluorescence)” value (“inhibition of hIAPP1-37 fibril formation” for short) (hIAPP1-37; [7]) was “reduced inhibition effect relatively to the phenol red molecule” and the “inhibition of hIAPP1-37 fibril formation” value (hIAPP1-37; 40 μM inhibitor, sample not centrifuged) was “more evident”.
With Nc1c(/N=N/c2ccc(-c3ccc(/N=N/c4cc(S(=O)(=O)O)c5ccccc5c4N)cc3)cc2)cc(S(=O)(=O)O)c2ccccc12 [congo red, Congo red, reference compound] the “inhibition of hIAPP1-37 fibril formation” value (hIAPP1-37; green tea polyphenols experiment, 48 hr to 12 days) was “inhibitory effect”.
For O=S1(=O)OC(c2ccc(O)cc2)(c2ccc(O)cc2)c2ccccc21 [phenol red], the IC50 (hIAPP1-37; 4 μM hIAPP1-37, gradual concentration of phenol red, read-out: IC50 of inhibition of fibril formation (ThT fluorescence)) was roughly 2500 nM, the “inhibition level of fibril formation (ThT end point)” value (hIAPP1-37; phenol red concentration of 20 μM and above, after one week of incubation) was “about 90%” and the “cell viability (MTT)” value (βTC-tet cells) was 80%.
With O=C1OC(c2ccc(O)cc2)(c2ccc(O)cc2)c2ccccc21 [phenolphthaleine] the “fibril morphology by TEM” value (hIAPP20-29 [3]) was “No inhibition”, the “fibril morphology by TEM” value (hIAPP20-29 [3]; listed as phenolephthaleine) was “no inhibition effect” and the “aggregation of hIAPP20-29 (turbidity)” value (hIAPP20-29 [4]) was “No inhibition effect”.
In the case of diacetoxy phenol red [PF3], the “recovery at experiment end point” value (Caco-2 cells [1]; 1 mM concentration) is reported as 53%±5%, the permeability grading (Caco-2 cells [1]; CaCo-2, apical to basolateral) is reported as “low-medium range” and the “Papp values compared to standards” value (Caco-2 cells [1]; apical to basolateral, 45 and 90 minutes) is reported as “higher than mannitol (a marker of paracellular transport) Papp values and lower than propranolol”. The detection of transport (Caco-2 cells [1]; higher concentration (0.1 mM)) was “detected”, the “detection in the basolateral chamber” value (Caco-2 cells [1]; lower concentration (0.02 mM), 45 and 90 minutes) was “not detected” and the “LDH activity in basolateral buffer” value (Caco-2 cells [2]; 0.1 mM, only one of the inserts, not repeated, attributed to a factor other than PF3) was “increase in LDH activity was detected”. For the same molecule, the “inhibition of hIAPP1-37 fibril formation” value (hIAPP1-37; [7]) was “reduced inhibition effect relatively to the phenol red molecule”, the “presence of the pro-drug PF3 in plasma” value ([5]; following oral administration) was “not detected” and the intestinal absorption ([5]; oral administration) was “clearly absorbed in the intestine”. For the same molecule, the “Half Life” value ([5]; phenol red plasma profile, P.O. PF3 […]) was 32 min, the “F, Bioavailability” value ([5]; phenol red plasma profile, P.O. PF3 […] vs I.V.) was 16% and the “PF3 Concentration” value [6, 8] was “n/d (not detected and denotes a concentration lower than 5 ng/ml)”. For the same molecule, the “Phenol red Concentration, Analyzed” value [6, 8] was greater than 20 µg/mL, the “PF3 Concentration” value [6, 9] was “n/d (not detected and denotes a concentration lower than 5 ng/ml)” and the “Phenol red Concentration, Analyzed” value [6, 9] was greater than 20 µg/mL. For the same molecule, the “PF3 Concentration” value [6, 10] was “n/d (not detected and denotes a concentration lower than 5 ng/ml)”, the “Phenol red Concentration, Analyzed” value [6, 10] was greater than 20 µg/mL and the “PF3 Concentration” value [6, 11] was “n/d (not detected and denotes a concentration lower than 5 ng/ml)”. The “Phenol red Concentration, Analyzed” value [6, 11] was 4.12 µg/mL and 4.33 µg/mL, the “PF3 Concentration” value ([6]; I.V. PF3, 90 minutes post dosing) was “n/d (not detected and denotes a concentration lower than 5 ng/ml)” and the “PF3 Concentration” value [6, 12] was “n/d (not detected and denotes a concentration lower than 5 ng/ml)”. For the same molecule, the “Phenol red Concentration, Analyzed” value [6, 12] was 0.76 µg/mL, the “PF3 Concentration” value [6, 13] was “n/d (not detected and denotes a concentration lower than 5 ng/ml)” and the “Phenol red Concentration, Analyzed” value [6, 13] was 0.22 µg/mL and 0.29 µg/mL. For the same molecule, the “presence of the pro-drug PF3 in plasma” value ([6]; mice, following I.V. administration, even after 5 minutes) was “not observed”, the “AUC (area under the curve)” value [6, 14] was 2232 µg·min/mL and the “Volume of distribution (Vss)” value [6, 14] was 0.367 L/kg. The Clearance [6, 15] was 11 mL/min/kg and the “Half Life” value [6, 15] was 40 min.

From US8372880B2, “Compositions and methods using same for treating amyloid-associated diseases” (Tel Aviv University Future Technology Development L.P., priority 2003, dated 2013)
